Patent US10626112B2, “Heterocyclic sulfonamide derivative and medicine comprising same” (EA PHARMA CO., LTD., priority 2014, dated 2020)

Biological target: human TRPA1 (Homo sapiens (Human), UniProt O75762)
Assay: Measurement of TRPA1 antagonist activity (1): intracellular calcium increase
Format: cell-based
Settings: 293T cells transfected with human TRPA1 expression plasmid; allylisothiocyanate 20 μM stimulation; intracellular calcium fluorescence; read-out: hTRPA1 IC50
Outline: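 HEK293T cells transiently transfected with full-length human TRPA1, loaded with Calcium4 dye in HBSS/20 mM HEPES pH 7.2. Test compound preincubated 10 min, then allylisothiocyanate added at 20 μM final and fluorescence change followed for 5 min. IC50 from sigmoid fit of percent inhibition relative to agonist and buffer controls.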

Chain of human TRPA1 (O75762 whole entry): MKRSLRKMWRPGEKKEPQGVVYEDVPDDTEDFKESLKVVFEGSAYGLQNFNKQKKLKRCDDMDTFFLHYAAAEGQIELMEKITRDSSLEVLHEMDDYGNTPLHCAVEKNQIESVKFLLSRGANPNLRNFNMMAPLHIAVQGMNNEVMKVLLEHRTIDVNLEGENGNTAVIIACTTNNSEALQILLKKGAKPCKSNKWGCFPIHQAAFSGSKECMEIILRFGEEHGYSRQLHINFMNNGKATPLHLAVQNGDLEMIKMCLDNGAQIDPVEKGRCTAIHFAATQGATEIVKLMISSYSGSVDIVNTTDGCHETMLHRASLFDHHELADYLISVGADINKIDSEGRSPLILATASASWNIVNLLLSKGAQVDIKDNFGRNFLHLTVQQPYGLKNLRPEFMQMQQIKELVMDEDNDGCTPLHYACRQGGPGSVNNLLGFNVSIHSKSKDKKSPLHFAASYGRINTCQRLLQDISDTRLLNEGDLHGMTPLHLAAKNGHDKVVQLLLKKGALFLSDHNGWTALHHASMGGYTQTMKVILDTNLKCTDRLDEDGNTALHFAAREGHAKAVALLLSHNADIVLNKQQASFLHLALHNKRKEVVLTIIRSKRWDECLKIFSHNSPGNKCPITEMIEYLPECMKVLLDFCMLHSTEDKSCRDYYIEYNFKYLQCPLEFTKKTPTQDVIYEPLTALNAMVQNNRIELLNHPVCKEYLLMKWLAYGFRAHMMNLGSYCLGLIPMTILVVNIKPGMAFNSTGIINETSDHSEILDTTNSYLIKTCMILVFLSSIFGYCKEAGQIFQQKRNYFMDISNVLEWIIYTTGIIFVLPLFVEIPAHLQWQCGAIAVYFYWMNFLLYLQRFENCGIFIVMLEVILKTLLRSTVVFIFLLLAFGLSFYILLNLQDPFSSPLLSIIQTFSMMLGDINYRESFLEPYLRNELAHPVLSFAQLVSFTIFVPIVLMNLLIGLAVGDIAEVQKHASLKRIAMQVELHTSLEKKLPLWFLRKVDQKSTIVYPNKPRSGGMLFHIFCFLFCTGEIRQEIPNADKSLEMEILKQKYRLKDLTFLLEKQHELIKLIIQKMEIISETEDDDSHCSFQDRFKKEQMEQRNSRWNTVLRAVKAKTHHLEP

Molecule | IC50 [nM]
C[C@H](NS(=O)(=O)c1cc2cc(F)ccc2o1)C(=O)NCc1cc(-c2ccc(OC(F)(F)F)cc2)ncn1 [Example 190, (2S)-2-[(5-fluorobenzofuran-2-yl)sulfonylamino]-N-[[6-[4-(trifluoromethoxy)phenyl]pyrimidin-4-yl]methyl]propanamide] | 5.2
O=C(NCc1cccc(OCC2CCOCC2)c1)[C@@H]1CCCN1S(=O)(=O)c1cc2cc(F)ccc2o1 [Example 30, (2S)-1-(5-fluorobenzofuran-2-yl)sulfonyl-N-[[3-(tetrahydropyran-4-ylmethoxy)phenyl]-methyl]pyrrolidine-2-carboxamide] | 8.3
(2S)-1-(5-fluorobenzofuran-2-yl)sulfonyl-N-[[3-[[2-morpholino-4-pyridyl)-methoxy]phenyl]-methyl]pyrrolidine-2-carboxamide [Example 18] | 12
O=C(NCc1cccc(OCc2ccc(C(F)(F)F)cc2)c1)[C@@H]1CCCN1S(=O)(=O)c1cc2ccccc2o1 [Example 38, (2S)-1-(benzofuran-2-ylsulfonyl)-N-[[3-[[4-(trifluoromethyl)phenyl]methoxy]-phenyl]methyl]pyrrolidine-2-carboxamide] | 9.1
O=C(NCc1cc(-c2ccc(OC(F)(F)F)cc2)ncn1)[C@@H]1CCCN1S(=O)(=O)c1cc2ccccc2o1 [Example 203, (2S)-1-(benzofuran-2-ylsulfonyl)-N-[[6-[4-(trifluoromethoxy)phenyl]-pyrimidin-4-yl]methyl]pyrrolidine-2-carboxamide] | 3.2
C[C@H](NS(=O)(=O)c1cc2cc(F)ccc2o1)C(=O)NCc1cc(-c2ccc(C(F)(F)F)nc2)ccn1 [Example 110, (2S)-2-[(5-fluorobenzofuran-2-yl)sulfonylamino]-N-[[4-[6-(trifluoromethyl)-3-pyridyl]-2-pyridyl]methyl]propanamide] | 17
O=C(NCc1ccc(-c2ccc(F)cc2)cc1)[C@@H]1CCCN1S(=O)(=O)c1cc2ccccc2o1 [Example 168, (2S)-1-(benzofuran-2-ylsulfonyl)-N-[[4-(4-fluorophenyl)phenyl]methyl]-pyrrolidine-2-carboxamide] | 180
C[C@H](NS(=O)(=O)c1cc2cc(F)ccc2o1)C(=O)NCc1ccc(O)c(-c2cnc(C(F)(F)F)cn2)c1 [Example 254, (2S)-2-[(5-fluorobenzofuran-2-yl)sulfonylamino]-N-[[4-hydroxy-3-[5-(trifluoromethyl)pyrazin-2-yl]phenyl]methyl]propanamide] | 80
CC(C)COc1nc(CNC(=O)[C@@H]2CCCN2S(=O)(=O)c2cc3ccccc3o2)cc(-c2ccc(C(F)(F)F)cc2)n1 [Example 311, (2S)-1-(benzofuran-2-ylsulfonyl)-N-[[2-isobutoxy-6-[4-(trifluoromethyl)phenyl]pyrimidin-4-yl]methyl]pyrrolidine-2-carboxamide] | 3.7
O=C(NCc1cc(-c2ccc(C(F)(F)F)cn2)ccn1)[C@@H]1CC=CCN1S(=O)(=O)c1cc2cc(F)ccc2o1 [Example 263, (2S)-1-(5-fluorobenzofuran-2-yl)sulfonyl-N-[[4-[5-(trifluoromethyl)-2-pyridyl]-2-pyridyl]methyl]-3,6-dihydro-2H-pyridine-2-carboxamide] | 21
C[C@H](NS(=O)(=O)c1cc2cc(F)ccc2o1)C(=O)NCc1cnnc(-c2ccc(C(F)(F)F)cc2)c1 [Example 249, (2S)-2-[(5-fluorobenzofuran-2-yl)sulfonylamino]-N-[[6-[4-(trifluoromethyl)phenyl]-pyridazin-4-yl]methyl]propanamide] | 170
O=C(NC1(c2ccnc(-c3ccc(C(F)(F)F)cc3)c2)CC1)[C@@H]1CCCN1S(=O)(=O)c1cc2ccccc2o1 [Example 217, (2S)-1-(benzofuran-2-ylsulfonyl)-N-[1-[2-[4-(trifluoromethyl)phenyl]-4-pyridyl]cyclopropyl]-pyrrolidine-2-carboxamide] | 64
